# Patent publication EP0558661B1, “POLYAZAMACROCYCLIC COMPOUNDS FOR COMPLEXATION OF METAL IONS” (BOARD OF REGENTS THE UNIVERSITY OF TEXAS SYSTEM, priority 1990, dated 1992)
# Where two headings read alike, the source gives them in different places.
# Experiments:
# [1] = KD of the DOTEP calcium complex by 31P NMR and pH potentiometry; format: binding; details: Ca(DOTEP); at pH 7.4
# Method: The ^31P spectrum shown in Figure 9 was obtained on a solution containing approximately 1 mM Ca^2+ and 3 mM DOTEP in an aqueous solution at physiological pH. Clearly, the ^31P resonances of the free and bound forms of DOTEP have distinct chemical shifts and neither overlaps with the ^31P resonances of metabolites normally observed in tissue.
# The value of KD at pH 7.4 reported above was determined by ^31P NMR (measuring the free and bound integrals as a function of pH in solutions containing known amounts of [Ca^2+]total and [DOTEP]total) and by pH potentiometry.
# [2] = 0.1 m hcl
# Method: In this experiment, Gd(DOTEP)^- and Gd(DOTA)^- were dissolved in 0.1M HCl and their decomposition to free Gd^3+ and free ligand were followed by water relaxation measurements.
# [3] = Solubility as observed on the isolated product; format: physicochemical
# Method: 9.20 g of NOTPDE (14.15 mmol) was mixed with 2.50 g of NaOH in 9 ml H2O) and after 2 hours the entire reaction mixture was boiled until a clear solution was obtained (approximately 5 minutes). The solution was cooled to room temperature and was allowed to stand overnight. The crystals formed were filtered off from the viscous mother liquor using a pressure filter funnel with a coarse porosity grade filter disc. The crystals were washed once with cold absolute ethanol, three times with absolute ethanol-diethylether (1:1) mixture and finally with diethyl ether. The crystals of Na3NOTPME were dried in dry nitrogen stream at 25°C for 2 hours. Traces of H2O and ethanol were removed upon vacuum drying (10 mm Hg) NOTPME for 5 hours at 50°C. […] The yield of pure NOTPME was 40.8% (3.24 g, 5.77 mmol).
# NOTPME trisodium salt (178.63 mg, 0.318 mmol) was dissolved in 4.0 ml anhydrous chloroform (freshly distilled from over P4O10) and 120 microliter acetyl chloride was added. The solution was stirred at room temperature for 24 hours in a tightly closed vessel. The solution was then evaporated under dry nitrogen atmosphere to a yellowish, very viscous oil. To the oil anhydrous ether was added and NOTPME-AC (precipitated as a sodium chloride adduct) was filtered off and dried at 35-40°C under dry nitrogen. NOTPME-AC (234.24 mg, 92.3% calculated on the basis of NOTPME-AC.3NaCl formula weight) is an extremely hygroscopic, water sensitive powder.
# NOTPME trisodium salt (164.82 mg, 0.294 mmol) and benzoyl chloride (105 microliter, 0.883 mmol) were reacted in 4.0 ml anhydrous chloroform at room temperature for 24 hours. The rection mixture was worked up with identical method than was used in the synthesis of NOTPME-AC. The product NOTPME-B was get as a sodium chloride adduct (204.32 mg, 70.7% calculated on the basis of NOTPME-B.3NaCl formula weight). NOTPME-B is a very hygroscopic, water sensitive powder. It is soluble in water and chloroform and DMSO.
# red blood cells = assay: Red blood cell loading of NOTPME derivatives; format: cell-based; details: during the time course of NMR measurements, after loading with the derivatives
# Method: NOTPME derivatives used are the benzoyl and acetyl derivatives. Fresh whole blood was obtained in heparinized tubes and centrifuged at 3000g for 3 minutes to remove the buffy coat. Packed red blood cells are then washed three times in 5 mM phosphate buffered saline at pH 7.4. Red blood cells at 50% hematocrit were suspended in the NOTPME derivative containing loading medium. The loading medium contained 130 mM NaCl, 5 mM NOTPME derivative (benzoyl or acetyl derivative), 1 mM adenine, 10 mM glucose, and 10 mM HEPES at pH 7.4. Red cells in the above loading medium were incubated at 25°C for 1 hour. No lysis of red blood cells were observed during the loading procedure. After loading with NOTPME derivatives for one hour, the red cell suspension was centrifuged and the supernatant discarded. The red cells are washed twice with 5 mM phosphate buffered saline at pH 7.4 before suspension in an isotonic saline for NMR measurements. […] After NMR measurements the sample was centrifuged and the supernatant analyzed for any leakage of NOTPME. No leak of NOTPME was observed during the time course of NMR measurements. thus, it is clear that these NOTPME derivatives enter the red cells, get hydrolyzed to NOTPME and remain inside red cells.
# [4] = Protonation constants by potentiometric titration; format: physicochemical; details: 0.1 m tetramethylammonium chloride
# Method: (§1) Potentiometric titrations were conducted at 25°C using a Corning Ion Analyzer (model 250) and a Metrohm Dorsimat automatic burette (Brinkman Instruments). […] Na3NOTPME was dissolved in 0.1 M tetramethylammonium chloride, the pH adjusted to low pH value with HCl and titrated with 0.098 M KOH. KOH was standardized by potentiometric titration against potassium hydrogen phthalate and stored under N2 atmosphere. The hydrogen ion activity coefficient and Kw were determined separately in these same salt solutions. Stability constants of Zn(NOTPME)^-, Mg(NOTPME)^-, and Ca(NOTPME)^- were determined by potentiometric titration of solutions containing 1:1 ratio of metal and ligand. In all of the titrations, samples were covered by a layer of cyclohexane to exclude CO2.
# (§2) Protonation constants (KHiL) and stability constants (KML, and KMHL) are defined by the following equations: KHiL = [Hi L] / {[Hi-1 (L] {H)^+ ]) [formula] KML = [ML] / {[M] [L]) [formula] KMHL (= [MHL] / {[ML] [H)^+ ]} [formula] Protonation and stability constants were obtained from the potentiometric data using a simplex non-linear algorithm run on an IBM PC.
# A representative potentiometric titration curve for NOTPME in 0.1 M tetramethylammonium chloride and 25°C is illustrated in Figure 2. […] The phosphorous shifts are very sensitive to protonation of the nitrogens in the polyaza ring, similar to that observed for the parent phosphonate NOTP [17]. The first two protonations (log K = 11.8, 3.65) result in ^31P shifts to low frequency which is consistent with protonation at two ring nitrogens. […] These differences in pK2 may reflect differences in the ability of the phosphonate versus the phosphonate monoester side chains to form internal hydrogen bonds with the protonated nitrogens.
# [5] = Stability constants by potentiometric titration; format: binding; details: for log KML: potentiometry at 25°C, 1:1 metal and ligand, 0.1 M tetramethylammonium chloride
# Method: as §1, §2
# RBCs = assay: Red blood cell loading of NOTPME and intracellular free Mg2+ by 31P NMR; format: cell-based, Human
# Method: Fresh whole blood was obtained placed in heparinized tubes and centrifuged at 3000 g for 6 min. to remove the buffy coat. RBCs were then washed three times in 5 mM phosphate buffered saline at pH 7.4. RBCs at 50% hematocrit were suspended in the loading medium containing 120 mM NaCl, 5 mM MgCl2, 10 mM HEPES pH 7.4, 10 mM glucose, and 10 mM NOTPME and incubated at 37°C for 12 hours. No lysis of RBCs were observed during the loading procedure. The RBCs were centrifuged and the supernatant discarded. The RBCs were washed twice with phosphate buffered saline at pH 7.4 before suspension in an isotonic medium.
# Figure 6 illustrates one application of NOTPME to detect intracellular free Mg^2+ in RBCs. NOTPME loaded RBCs (Figure 6.b) were prepared by incubating RBCs at 37°C in a loading medium containing NOTPME in the presence of 5mM MgCl2 for 12 hours. NOTPME loading into RBCs was not observed in the absence of MgCl2 in the loading medium.
# As in the in vitro studies, two resonances were observed corresponding to free and Mg^2+ bound NOTPME in RBCs. […] Since intracellular free Mg^2+ levels in RBCs normally range between 0.2 - 0.3 mM [12,19,20], the high concentration of intracellular free Mg^2+ observed in this experiment must have resulted from transport of Mg^2+ as a complex with NOTPME. Upon addition of the divalent cation ionophore A23187 to the suspension medium, an increase in intracellular free Mg^2+ concentration (to 1.90 mM) was observed (data not shown).
# [6] = KD determination by 31P NMR (integration of free and metal bound resonances); format: binding
# Method: ^1H NMR data was obtained on JEOL FX-200 NMR spectrometer using a 10 mm probe operating at room temperature. Studies on solutions of NOTPME and its complexes were performed on a General Electric GN-500 NMR spectrometer. A 10 mm broad band probe was tuned to 202.4 MHz for ^31P detection. Shifts for NOTPME and its complexes were measured using 85% H3PO4 as an external standard. Probe temperatures were accurate to ± 0.5°C.
# Samples of NOTPME used for KD determinations by NMR consisted of 115 mM KCl, 20 mM NaCl and 10 mM HEPES buffered with Tris base at pH 7.4. Varying concentrations (typically 0.5 to 10 mM) of Mg^2+, Ca^2+ or Zn^2+ were added to the sample and the resulting ^31P NMR spectrum obtained. Resonance areas were determined by integration of peaks using the GE software.
# The area of resonances corresponding to free and metal bound NOTPME were obtained by integration and their concentrations estimated.
compound,measurement,setting,value
CCP(=O)(O)CN1CCN(CP(=O)(O)CC)CCN(CP(=O)(O)CC)CCN(CP(=O)(O)CC)CC1 [DOTEP],Kd,[1],0.011 mM
Gd(DOTA)^-,half-lives for decomposition,[2],approximately 110 hrs.
CCOP(=O)(CN1CCN(CP(=O)(OCC)OC(=O)c2ccccc2)CCN(CP(=O)(OCC)OC(=O)c2ccccc2)CC1)OC(=O)c1ccccc1 (centres unmarked) [NOTPME-B],solubility in DMSO,[3],soluble
same,solubility in chloroform,[3],soluble
same,solubility in water,[3],soluble
"CCOP(=O)(O)CN1CCN(CP(=O)(O)OCC)CCN(CP(=O)(O)OCC)CC1 [NOTPME, 1,4,7-Triazacyclononane-N,N',N""-tris(methylenephosphonatemonoethylester)]",leakage of NOTPME into the supernatant,red blood cells,No leak
same,solubility in chloroform,[3],fairly soluble
same,solubility in water,[3],readily soluble
same,pKa,"[4]; 25°C, read-out: pK1 (first protonation constant, log K1)",11.8
same,pKa,"[4]; 25°C, read-out: pK2 (second protonation constant, log K2)",3.65
same,pKa,"[4]; 25°C, read-out: pK3",1.4
same,pKa,[4]; protonations of the phosphonate ester oxygens,< 1.4
same,log KML,[5]; Ca^2+,5.1
same,log KML,[5]; Mg^2+,6.3
same,Kd,"[5]; Zn^2+ complex, estimated from log KML = 15.4, the ligand pK values and the proton concentration at pH 7.4",0.01 nM
same,lysis of RBCs during the loading procedure,"RBCs; 10 mM NOTPME, 5 mM MgCl2, 37°C, 12 hours, 50% hematocrit",No lysis
same,loading into RBCs,RBCs; in the absence of MgCl2 in the loading medium,not observed
same,loading into red blood cells,RBCs; in the presence of Mg^2+,readily loaded
same,Kd,"[6]; Ca^2+ complex, 115 mM KCl, 20 mM NaCl, 10 mM HEPES, pH 7.4, read-out: KD (at 25°X)",50 mM
same,Kd,"[6]; Ca^2+ complex, pH 7.4, read-out: KD (at 37°C)",47.6 mM
same,Kd,"[6]; Mg^2+ complex, 31P NMR, 115 mM KCl, 20 mM NaCl, 10 mM HEPES, pH 7.4, read-out: KD (at 25°X)",5.77 mM
same,Kd,"[6]; Mg^2+ complex, 31P NMR, pH 7.4, read-out: KD (at 37°C)",4.66 mM
same,higher affinity for Mg^2+ than for Ca^2+,[6]; at physiological pH values,10 fold
"CCOP(=O)(CN1CCN(CP(=O)(OCC)OC(C)=O)CCN(CP(=O)(OCC)OC(C)=O)CC1)OC(C)=O (centres unmarked) [NOTPME-AC, 1,4,7-triazacyclononane-N,N',N""-tris(methylenephosphonatemonoethylesteracetic acid anhydride)]",solubility in DMSO,[3],readily soluble
same,solubility in chloroform,[3],readily soluble
same,solubility in water,[3],readily soluble
